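Dose response: 5 concentrations. Exposure: 48 h. Format: 96-well plates. Endpoint: linear interpolation; highest concentration if not reached. GI50 marks 50% less growth.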 Calls of active or inactive are those of the source. Rule as the data show it: active = GI50 up to about 1.1 µM and inactive = higher.
Experiments:
Assay in all cases: DTP human tumour cell line panel, 48 h
[1] = system: HOP-62
[2] = system: UACC-257
[3] = system: SF-539
[4] = system: RPMI-8226
[5] = system: SK-MEL-28
[6] = system: SN12C
[7] = system: HT-29
[8] = system: DU-145
[9] = system: MDA-MB-435
[10] = system: SK-MEL-2
[11] = system: ACHN
[12] = system: SR
[13] = system: HCT-15
[14] = system: NCI-H23
[15] = system: SW-620
[16] = system: HOP-92
[17] = system: SF-295
[18] = system: 786-0
[19] = system: SK-MEL-5
[20] = system: NCI/ADR-RES

Row | Compound | GI50 [1] | GI50 [2] | GI50 [3] | GI50 [4] | GI50 [5] | GI50 [6] | GI50 [7] | GI50 [8] | GI50 [9] | GI50 [10] | GI50 [11] | GI50 [12] | GI50 [13] [µM] | GI50 [14] | GI50 [15] | GI50 [16] | GI50 [17] | GI50 [18] | GI50 [19] | GI50 [20]
1 | COC(=O)C1=C(O)C(C(=O)OC)[C@@]2(O)[C@@H](C(=O)OC)[C@H](C)[C@@H](C)[C@@H]1[C@@H]2C(=O)OC (stereo partly specified) | 89.5 µM (inactive) | 46.6 µM (inactive) | 35.6 µM (inactive) | 51.1 µM (inactive) | > 100 µM (inactive) | > 100 µM (inactive) | 55.7 µM (inactive) | > 100 µM (inactive) | 17.9 µM (inactive) | 48.5 µM (inactive) | > 100 µM (inactive) | 28.2 µM (inactive) | 41.5 | 75.2 µM (inactive) |  |  |  |  |  | 
2 | COc1cc2c3c(c1OC)Oc1ccc(cc1)CC1c4c(cc(OC)c(OC)c4Oc4ccc(cc4)CC3N(C)CC2)CCN1C (stereo unspecified) | 22.4 µM (inactive) | 13.8 µM (inactive) | 14.5 µM (inactive) | 25.6 µM (inactive) | 18.8 µM (inactive) | 19 µM (inactive) | 15.1 µM (inactive) |  |  | 32.3 µM (inactive) | 26.2 µM (inactive) | 2.88 µM (inactive) |  | 57.9 µM (inactive) | 15.1 µM (inactive) | 32.6 µM (inactive) | 18.5 µM (inactive) | 19.8 µM (inactive) | 16.7 µM (inactive) | 
3 | COC1(OC)C2C=CC1C([C@](C)(N)CO)C2 (stereo partly specified) | > 100 µM (inactive) | > 100 µM (inactive) | > 100 µM (inactive) |  | > 100 µM (inactive) | > 100 µM (inactive) | > 100 µM (inactive) | > 100 µM (inactive) | > 100 µM (inactive) |  | > 100 µM (inactive) | > 100 µM (inactive) |  | > 100 µM (inactive) | > 100 µM (inactive) | > 100 µM (inactive) | > 100 µM (inactive) | > 100 µM (inactive) | > 100 µM (inactive) | 
4 | CCCCCOc1ccc(/C=N\c2ccc(-c3ccc(/N=C\c4ccc(OCCCCC)cc4)c(OC)c3)cc2OC)cc1 | > 100 µM (inactive) | > 100 µM (inactive) | > 100 µM (inactive) | > 100 µM (inactive) | > 100 µM (inactive) | > 100 µM (inactive) | > 100 µM (inactive) |  |  | > 100 µM (inactive) |  |  | > 100 | > 100 µM (inactive) | > 100 µM (inactive) | > 100 µM (inactive) | > 100 µM (inactive) |  | > 100 µM (inactive) | > 100 µM (inactive)
5 | Cc1ccc(C(=O)Nc2ncn(C3CC(O)C(CO)O3)c(=O)n2)cc1 (stereo unspecified) | > 100 µM (inactive) | > 100 µM (inactive) | > 100 µM (inactive) | > 45.9 µM (inactive) | > 100 µM (inactive) | > 100 µM (inactive) | > 100 µM (inactive) |  |  | > 100 µM (inactive) |  |  | > 100 | > 100 µM (inactive) | > 100 µM (inactive) | > 100 µM (inactive) | > 100 µM (inactive) |  | > 100 µM (inactive) | > 100 µM (inactive)
